Experiments:
[1] = system: antibodies raised from SUA-BTG; assay: Biochip-based competitive immunoassay (salicyluric acid dose-response curve and cross-reactivity profile); type: binding, sheep; details: Concentration 350 μg/ml
Procedure: In order to generate polyclonal antisera, the immunogen (prepared in Example 2) was mixed with primary complete Freund's Adjuvant (Sigma) and injected into a host sheep to provide target-specific polyclonal antisera. On a monthly basis the immunogen (with incomplete Freund's Adjuvant) was injected into the sheep. The host animal was bled to yield a suitable volume of specific antiserum. IgG was then extracted from the antisera via Caprylic acid/ammonium sulphate precipitation of immunoglobulin.
Nine calibrator solutions of salicyluric acid (0-5.00 μg/ml) were prepared in calibrator buffer for standard curves. Cross-reactants (aspirin, 4-aminosalcylic acid, benzoic acid, diflusinal, gentisic acid, gentisuric acid, ibuprofen, methyl salicylate, salicylic acid and salsalate) were diluted in calibrator buffer (0-350 μg/ml). Assay diluent (155 μl), sample/antigen (25 μl), and diluted conjugate (Hapten 1-HRP 120 μl) were added to biochips wells. Biochips were incubated for 30 min at 30° C. in a thermoshaker at 370 rpm, and then washed with TBST buffer (2 quick washes followed by 4 washes with 2 min intervals). Biochips were developed with 250 μl luminol plus: peroxide (1:1) for 2 min in the dark, and were then imaged on the Randox Investigator (2×60 sec images).

[2] = cited from earlier work
[3] = cited from earlier work; for share of excreted product: excretion after aspirin ingestion; for kinetics of formation: hepatic metabolism of salicylic acid
[4] = after ingestion of a therapeutic amount of aspirin

SMILES: Nc1ccc(C(=O)O)c(O)c1 [4-aminosalicylic acid]
- % Cross-reactivity [1]: <<1.00%

SMILES: CC(=O)Oc1ccccc1C(=O)O [Aspirin, 2-acetoxybenzoic acid]
- moderately toxic concentration (MTC), aspirin equivalent ([2]; Chyka et al (2007)): 6.5 g
- toxic concentration, aspirin ingestion ([2]; general literature): > 300 mg/kg
- concentrations considered to be toxic ([2]; serum): exceeding 300 mg/l
- therapeutic concentration range in serum ([2]; serum): 150 to 300 mg/L
- time until only trace levels remain [3, 4]: ≤ 2 h
- % Cross-reactivity [1]: <<1.00%

SMILES: O=C(O)c1ccccc1 [Benzoic acid]
- % Cross-reactivity [1]: <<1.00%

SMILES: O=C(O)c1cc(-c2ccc(F)cc2F)ccc1O [Diflusinal]
- % Cross-reactivity [1]: <<1.00%

SMILES: O=C(O)c1cc(O)ccc1O [Gentisic acid]
- share of excreted product [3]: approximately 1%
- kinetics of formation [3]: first-order kinetics
- % Cross-reactivity [1]: <<1.00%

SMILES: O=C(O)CNC(=O)c1cc(O)ccc1O [Gentisuric acid]
- % Cross-reactivity [1]: <<1.00%

SMILES: O=C(O)CNC(=O)c1ccccc1 [Hippuric acid]
- % Cross-reactivity [1]: <<1.00%

SMILES: CC(C)Cc1ccc(C(C)C(=O)O)cc1 (stereo not drawn) [Ibuprofen]
- % Cross-reactivity [1]: <<1.00%

SMILES: COC(=O)c1ccccc1O [Methyl salicylate]
- % Cross-reactivity [1]: <<1.00%

SMILES: O=C(O)c1ccccc1O [Salicylic acid, salicylic acid]
- therapeutic level in blood ([2]; blood of a healthy adult): 150 to 300 mg/L
- time of peak levels [3, 4]: 1 to 2 h
- share of excreted product [3]: approximately 10%
- half-life ([3]; in serum): approximately 6 hours
- % Cross-reactivity [1]: <<1.00%

SMILES: O=C(O)CNC(=O)c1ccccc1O [Salicyluric acid, salicyluric acid]
- share of excreted product [3]: approximately 75%
- kinetics of formation [3]: Michaelis-Menten or zero-order kinetics

SMILES: O=C(O[C@@H]1O[C@H](C(=O)O)[C@@H](O)[C@H](O)[C@H]1O)c1ccccc1O [salicylacyl glucuronide]
- share of excreted product [3]: approximately 5%
- kinetics of formation [3]: first-order kinetics

SMILES: O=C(O)c1ccccc1O[C@@H]1O[C@H](C(=O)O)[C@@H](O)[C@H](O)[C@H]1O [salicylphenolic glucuronide]
- share of excreted product [3]: approximately 8%
- kinetics of formation [3]: Michaelis-Menten or zero-order kinetics

— US20120164756A1, “ASPIRIN ASSAY” (RANDOX LABORATORIES LIMITED, priority 2009, published 2012)
